For 25 molecules, EC50 results are on record in patent US11230526B1, “Cylcoalkenyl derivatives useful as agonists of the GPR120 and/or GPR40 receptors” (Janssen Pharmaceutica NV, priority 2018, dated 2022).

For test [1], the target named is T1, Human GPR120 short form (Homo sapiens, UniProt Q5NUL3).
T1 construct: expressed in transfected cells
T1 sequence (Q5NUL3 1-361): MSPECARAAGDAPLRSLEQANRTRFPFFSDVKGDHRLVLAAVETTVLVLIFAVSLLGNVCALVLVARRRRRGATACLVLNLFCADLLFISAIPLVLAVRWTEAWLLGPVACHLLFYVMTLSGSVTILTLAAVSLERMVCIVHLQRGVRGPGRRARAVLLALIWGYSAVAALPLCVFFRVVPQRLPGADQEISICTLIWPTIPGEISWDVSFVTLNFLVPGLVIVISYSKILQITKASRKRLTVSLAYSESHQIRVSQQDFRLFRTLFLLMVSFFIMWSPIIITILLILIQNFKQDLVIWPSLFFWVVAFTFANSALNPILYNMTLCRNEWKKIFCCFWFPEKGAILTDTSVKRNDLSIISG
In words: Human GPR120 calcium flux assay, Procedure Calcium B (4200 cells/well). The format is cell-based. The protocol:
Human GPR120 in Calcium Flux Assay
These cells are first loaded with the Ca^+2 sensitive dye, Fluo-4 NW. Upon stimulation, intracellular released Ca^+2 can bind to the dye and alter its fluorescence intensity. This increase in fluorescence signal, and thus the flux in intracellular [Ca^2+], is detected and quantitated by fluorescence imaging using a FLIPR reader. The effect of the agonist is measured as a function of concentration and used to calculate an EC50 based upon a response curve.
In this procedure 4200 cells/well were employed.
A Human GPR120 clone (Genbank accession number NM_001195755.1) was placed into the pcDNA3.1 mammalian expression vector carrying the neomycin resistance gene. A stable mammalian cell was generated by placing the above clone into a HEK293 background. […] Cells were split 2 times a week to keep the cells in the log-phase growth. […]
The assay was performed on a FLIPR plate reader using the following parameters. Baseline was read for 10 seconds at 1 sec intervals. The program was set to transfer 10 μL of ligand from compound plate to cell plate after baseline reading. Aspiration was executed at: 10 μL/sec speed, 4.6 μL height, Dispensing was executed at: 30 μL/sec speed, 45 μL height. After compound addition, each well was read for 300 sec, with measurements collected at 1 sec intervals.
The kinetic data from the FLIPR was based upon a 5 minute window for data collection. The fluorescence of each sample well was used for individual calculations of a normalized RFU value, which was defined as maximum response minus the minimum response. The normalized fluorescence reading (RFU) was calculated as follows: RFU=Fmax−Fmin
The Fitting Equation was: Y=Bottom+(Top-Bottom)/(1+10^((Log EC50−X)*HillSlope)), where X is the log of the concentration and Y is the response.
(Calcium flux is commonly read through the fluorescence of an indicator in the cells.)

Test [2] has as its target T2, human GPR40 (Homo sapiens, UniProt O14842).
T2 construct: expressed in transfected cells
In words: GPR40 calcium flux assay, human GPR40. The format is cell-based. Conditions: HEK293 cells stably expressing GPR40; table does not say human or rat. On the procedure:
Compounds were tested in a calcium flux assay using transfected HEK293 cells stably expressing either human GPR40 or rat GPR40. Human GPR40 expressing cells were cultured in DMEM−High Glucose media supplemented with 10% fetal bovine serum, 1×L-Glutamine, 1×Penicillin/Streptomycin and 500 μg/mL G418. Rat GPR40 expressing cells were cultured in DMEM−High Glucose media supplemented with 10% fetal bovine serum and 1 μg/mL puromycin. Cells were plated into poly-D-lysine coated 384-well plates and cultured overnight in a 37° C. humidified tissue culture incubator under 5% CO2/[…] atmosphere.
On the day of the experiment, the culture media was replaced with assay buffer (HBSS, 20 mM HEPES, 0.1% BSA) and the cells incubated at 37° C. for 1 h. Calcium-sensitive fluorescent dye (Fluo 8 No-Wash Calcium Dye, ABD Bioquest) was then added and the cells incubated for another 30 min at 37° C. followed by 15 min at room temperature while protected from the light. The cell plate and a plate of diluted compounds of Formula (I) were loaded into a fluorescent plate reader that added compounds onto the cells while measuring the fluorescence intensity of each well. The plate reader recorded fluorescence intensity at 1 second intervals for 8 min and provided the data for analysis in an Excel format. EC50 values were calculated using Prism (GraphPad) software.

What is called EC50 is the concentration needed to bring the measured effect to its halfway point.

T2 sequence (O14842 whole entry): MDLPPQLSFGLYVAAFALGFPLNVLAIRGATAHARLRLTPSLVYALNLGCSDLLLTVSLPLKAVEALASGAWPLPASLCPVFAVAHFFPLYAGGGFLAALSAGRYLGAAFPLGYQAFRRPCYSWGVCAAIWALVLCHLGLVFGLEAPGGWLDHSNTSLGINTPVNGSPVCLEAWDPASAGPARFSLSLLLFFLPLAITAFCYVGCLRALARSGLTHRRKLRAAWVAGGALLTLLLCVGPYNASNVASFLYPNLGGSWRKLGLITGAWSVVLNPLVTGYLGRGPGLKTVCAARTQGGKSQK

Turning to `Cc1ccc(C2=C(COc3ccc(CCC(=O)O)cc3C)CCC2)o1` [Compound 211, 3-[3-methyl-4-[[2-(5-methyl-2-furyl)cyclopenten-1-yl]methoxy]phenyl]Propanoic Acid], the EC50 in test [1] is 304 nM; in test [2], above 5000 nM.

Regarding `O=C(O)CCc1ccc(OCC2=C(c3ccc(F)cc3)CCC2)cc1Cl` [Compound 260, 3-[2-chloro-4-[[2-(4-fluorophenyl)cyclopenten-1-yl]methoxy]phenyl]Propanoic Acid], the values for the concentration giving a half-maximal response (EC50) in test [1] and in test [2] were 541 nM and 488 nM, respectively.

On to `Cc1ccc(C2=C(COc3ccc(CCC(=O)O)c(C(F)(F)F)c3)CCC2)c(C(C)C)c1` [Compound 331, 3-[4-[[2-(2-isopropyl-4-methyl-phenyl)cyclopenten-1-yl]methoxy]-2-(trifluoromethyl)phenyl]Propanoic Acid], for which the 50% effective concentration (EC50) in test [1] is above 5000 nM; in test [2], 3340 nM.

With `Cc1cc(OCC2=C(c3ccc(Cl)cc3)C(C)CC2)c(F)cc1CCC(=O)O` (centres unmarked) [Compound 317, 3-[4-[[2-(4-chlorophenyl)-3-methyl-cyclopenten-1-yl]methoxy]-5-fluoro-2-methyl-phenyl]Propanoic Acid], the EC50 in test [1] was found to be 866 nM; in test [2], 746 nM.

As to `O=C(O)CCc1ccc(OCC2=C(Cc3cccc(F)c3)CCC2)cc1Cl` [Compound 362, 3-[2-chloro-4-[[2-[(3-fluorophenyl)methyl]cyclopenten-1-yl]methoxy]phenyl]Propanoic Acid], the 50% effective concentration (EC50) in test [1] is above 5000 nM; in test [2] it was 159 nM.

As for `O=C(O)CCc1ccc(OCC2=C(Cc3nccs3)CCC2)cc1Cl` [Compound 445, 3-[2-chloro-4-[[2-(thiazol-2-ylmethyl)cyclopenten-1-yl]methoxy]phenyl]Propanoic Acid], the figures for the EC50 in test [1] and in test [2] were 3540 nM and 266 nM, respectively.

In the case of `Cc1cc(OCC2=C(c3ccc(OC(F)(F)F)cc3)CCC2)c(F)cc1CCC(=O)O` [Compound 325, 3-[5-fluoro-2-methyl-4-[[2-[4-(trifluoromethoxy)phenyl]cyclopenten-1-yl]methoxy]phenyl]Propanoic Acid], the concentration giving a half-maximal response (EC50) in test [1] was above 5000 nM; in test [2], 2770 nM.

On to `O=C(O)CCc1ccc(OCC2=C(C3CCCC3)CCC2)cc1Cl` [Compound 428, 3-[2-chloro-4-[(2-cyclopentylcyclopenten-1-yl)methoxy]phenyl]Propanoic Acid], for which the figures for the EC50 in test [1] and in test [2] were 256 nM and 48 nM, respectively.

For `O=C(O)CCc1ccc(OCC2=C(C3CCCCC3)CCC2)cc1C(F)(F)F` [Compound 386, 3-[4-[(2-cyclohexylcyclopenten-1-yl)methoxy]-2-(trifluoromethyl)phenyl]Propanoic Acid], the EC50 in test [1] amounted to 1700 nM; in test [2], 92 nM.

Regarding `CC(C)C1=C(COc2ccc(CCC(=O)O)c(C(F)(F)F)c2)CCCC1` [Compound 586, 3-[4-[(2-isopropylcyclohexen-1-yl)methoxy]-2-(trifluoromethyl)phenyl]Propanoic Acid], the values for the 50% effective concentration (EC50) in test [1] and in test [2] were 908 nM and 52 nM, respectively.

`O=C(O)CCc1ccc(OCC2=C(c3ccccc3)CCC2)cc1Cl` [Compound 259, 3-[2-chloro-4-[(2-phenylcyclopenten-1-yl)methoxy]phenyl]Propanoic Acid]: the figures for the EC50 in test [1] and in test [2] were 1220 nM and 1570 nM, respectively.

On to `CCCCC1=C(COc2ccc(CCC(=O)O)c(Cl)c2)CCCC1` [Compound 583, 3-[4-[(2-butylcyclohexen-1-yl)methoxy]-2-chloro-phenyl]Propanoic Acid], for which the results for the concentration for a half-maximal effect (EC50) in test [1] and in test [2] were 765 nM and 294 nM, respectively.

Consider `O=C(O)CCc1cc(F)c(OCC2=C(C3CCCC3)CCC2)cc1Cl` [Compound 450, 3-[2-chloro-4-[(2-cyclopentylcyclopenten-1-yl)methoxy]-5-fluoro-phenyl]Propanoic Acid], for which the EC50 in test [1] was 273 nM; in test [2] it was 118 nM.

In the case of `O=C(O)CCc1cc(F)c(OCC2=C(C3CCCC3)CCC2)c(F)c1` [Compound 436], the values for the EC50 in test [1] and in test [2] were 159 nM and above 10000 nM, respectively.

`Cc1c(CCC(=O)O)ccc(OCC2=C(C3CCC(F)(F)CC3)CCC2)c1C` [Compound 413, 3-[4-[[2-(4,4-difluorocyclohexyl)cyclopenten-1-yl]methoxy]-2,3-dimethyl-phenyl]Propanoic Acid]: the EC50 was 1800 nM in test [1] and above 10000 nM in test [2].

Consider `O=C(O)CCc1ccc(OCC2=C(c3ccc(F)cc3)CC(F)(F)C2)cc1Cl` [Compound 401, 3-[2-chloro-4-[[4,4-difluoro-2-(4-fluorophenyl)cyclopenten-1-yl]methoxy]phenyl]Propanoic Acid], for which the values for the EC50 in test [1] and in test [2] were 304 nM and 311 nM, respectively.

Regarding `O=C(O)CCc1ccc(OCC2=C(C3CC4CCC3C4)CCCC2)cc1Cl` (centres unmarked) [Compound 593, 3-[2-chloro-4-[(2-norbornan-2-ylcyclohexen-1-yl)methoxy]phenyl]Propanoic Acid], the EC50 was above 5000 nM in test [1] and 1300 nM in test [2].

In the case of `O=C(O)CCc1ccc(OCC2=C(C3CCCC3)CCC(F)(F)C2)cc1C(F)(F)F` [Compound 606, 3-[4-[(2-cyclopentyl-5,5-difluoro-cyclohexen-1-yl)methoxy]-2-(trifluoromethyl)phenyl]Propanoic Acid], the concentration giving a half-maximal response (EC50) amounted to 166 nM in test [1] and 247 nM in test [2].

For `Cc1cccc(CC2=C(COc3ccc(CCC(=O)O)c(Cl)c3)CCC2)c1` [Compound 406, 3-[2-chloro-4-[[2-(m-tolylmethyl)cyclopenten-1-yl]methoxy]phenyl]Propanoic Acid], the EC50 in test [1] is above 5000 nM; in test [2], 152 nM.

Turning to `O=C(O)CCc1ccc(OCC2=C(C3CC4CCC3C4)CCC2)cc1C(F)(F)F` (centres unmarked) [Compound 390, 3-[4-[(2-norbornan-2-ylcyclopenten-1-yl)methoxy]-2-(trifluoromethyl)phenyl]Propanoic Acid], the figures for the half-maximal effective concentration (EC50) in test [1] and in test [2] were 1190 nM and 23 nM, respectively.

`CC(C)(C)CC1=C(COc2ccc(CCC(=O)O)c(C(F)(F)F)c2)CCC1` [Compound 387, 3-[4-[[2-(2,2-dimethylpropyl)cyclopenten-1-yl]methoxy]-2-(trifluoromethyl)phenyl]Propanoic Acid]: the EC50 in test [1] was above 5000 nM; in test [2], 71 nM.

Consider `O=C(O)CCc1ccc(OCC2=C(C3CCCC3)CC(F)(F)C2)cc1Cl` [Compound 409, 3-[2-chloro-4-[(2-cyclopentyl-4,4-difluoro-cyclopenten-1-yl)methoxy]phenyl]Propanoic Acid], for which the EC50 was determined as 86 nM in test [1] and 25 nM in test [2].

For the molecule `Cc1cc(OCC2=C(Cc3ccccc3)CCC2)c(F)cc1CCC(=O)O` [Compound 314, 3-[4-[(2-benzylcyclopenten-1-yl)methoxy]-5-fluoro-2-methyl-phenyl]Propanoic Acid], the EC50 in test [1] is 765 nM; in test [2], 461 nM.

In the case of `O=C(O)CCc1ccc(OCC2=C(c3ccc(C(F)(F)F)cc3)CCC2)cc1C(F)(F)F` [Compound 300, 3-[2-(trifluoromethyl)-4-[[2-[4-(trifluoromethyl)phenyl]cyclopenten-1-yl]methoxy]phenyl]Propanoic Acid], the half-maximal effective concentration (EC50) in test [1] came to 1550 nM; in test [2], 197 nM.

Regarding `O=C(O)CCc1ccc(OCC2=C(Cc3ccc(Cl)cc3)CCC2)cc1Cl` [Compound 356, 3-[2-chloro-4-[[2-[(4-chlorophenyl)methyl]cyclopenten-1-yl]methoxy]phenyl]Propanoic Acid], the EC50 is 2540 nM in test [1] and 68 nM in test [2].
